For 13 compounds, inhibition, Activity and IC50 results are on record in ChEMBL document CHEMBL5316266, “Ligand-Based Design on the Dog-Bone-Shaped BIBR1532 Pharmacophoric Features and Synthesis of Novel Analogues as Promising Telomerase Inhibitors with In Vitro and In Vivo Evaluations” (J Med Chem, 2023).

The target in data set [1] is Telomerase reverse transcriptase (Homo sapiens) (UniProt O14746). The experiment in a line: Inhibition of telomerase (unknown origin) by qRT-PCR analysis relative to control. Details: concentration or dose not given beside the values. To be noted: concentration not given here. Background: In qPCR the cycle at which signal appears reflects the starting amount.
Chain of Telomerase reverse transcriptase (Homo sapiens) (O14746 whole entry): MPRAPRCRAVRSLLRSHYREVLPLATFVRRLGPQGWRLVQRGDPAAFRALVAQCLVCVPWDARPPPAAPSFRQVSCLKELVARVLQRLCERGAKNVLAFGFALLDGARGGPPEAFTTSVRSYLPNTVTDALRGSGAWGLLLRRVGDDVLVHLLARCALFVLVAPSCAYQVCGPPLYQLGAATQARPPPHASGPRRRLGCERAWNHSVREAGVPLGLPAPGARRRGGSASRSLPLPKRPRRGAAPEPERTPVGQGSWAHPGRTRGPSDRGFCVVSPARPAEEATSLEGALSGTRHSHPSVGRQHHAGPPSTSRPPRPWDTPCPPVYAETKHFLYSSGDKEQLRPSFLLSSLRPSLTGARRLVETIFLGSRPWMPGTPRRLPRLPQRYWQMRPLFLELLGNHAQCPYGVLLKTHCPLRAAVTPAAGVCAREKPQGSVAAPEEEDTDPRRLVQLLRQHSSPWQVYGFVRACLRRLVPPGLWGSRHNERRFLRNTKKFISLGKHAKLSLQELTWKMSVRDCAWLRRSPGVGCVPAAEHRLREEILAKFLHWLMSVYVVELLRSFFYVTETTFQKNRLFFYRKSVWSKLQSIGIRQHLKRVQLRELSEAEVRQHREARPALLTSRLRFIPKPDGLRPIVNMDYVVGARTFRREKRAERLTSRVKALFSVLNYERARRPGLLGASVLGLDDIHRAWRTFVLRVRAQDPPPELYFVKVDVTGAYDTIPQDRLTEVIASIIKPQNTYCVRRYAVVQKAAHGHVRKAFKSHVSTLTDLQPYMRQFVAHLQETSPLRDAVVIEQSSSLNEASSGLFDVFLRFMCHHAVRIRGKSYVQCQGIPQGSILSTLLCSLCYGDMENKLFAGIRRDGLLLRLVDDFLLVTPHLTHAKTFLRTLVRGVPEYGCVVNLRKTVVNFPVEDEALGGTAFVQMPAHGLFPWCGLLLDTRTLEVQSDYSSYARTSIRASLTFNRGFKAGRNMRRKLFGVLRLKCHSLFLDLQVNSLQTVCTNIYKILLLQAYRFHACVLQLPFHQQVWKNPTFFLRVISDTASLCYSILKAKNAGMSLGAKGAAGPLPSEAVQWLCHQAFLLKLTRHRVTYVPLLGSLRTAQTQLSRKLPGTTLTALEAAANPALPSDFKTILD
The subject of data set [2] is Ehrlich. As to the kind of experiment: Anticancer activity against mouse solid Ehrlich carcinoma cells implanted in Swiss albino mouse assessed as decrease in serum albumin level at 5 mg/kg administered thrice per week for 2 weeks by biochemical assay tarting from day 7 post tumor implantation by biochemical assay relative to control. The class given is functional. Set-up: scale not given: the % may be the effect or the level left.

The subject of the next data set is A549. The experiment in a line: Cytotoxicity against human A549 cells assessed as inhibition of cell growth incubated for 72 hrs by MTT assay. The class given is functional, cell-based. The conditions noted are these: A549, 72 h. In general terms: Tetrazolium assays rely on reduction of a dye to a coloured formazan, in cell work by metabolically active cells.
The subject of data set [3] is Ehrlich. As to the kind of experiment: Anticancer activity against mouse solid Ehrlich carcinoma cells implanted in Swiss albino mouse assessed as necrotic cells at 5 mg/kg administered thrice per week for 2 weeks starting from day 7 post tumor implantation by H and E staining based histopathological analysis relative to control. The class given is functional.
A short description of data set [4]: Toxicity in Swiss albino mouse implanted with mouse solid Ehrlich carcinoma assessed as confluent necrosis in liver at 5 mg/kg administered thrice per week for 2 weeks starting from day 7 post tumor implantation by H and E staining based histopathological analysis. Format: organism-based. The conditions noted are these: in vivo, 336 h.
Data set [5] concerns Ehrlich. The experiment in a line: Anticancer activity against mouse solid Ehrlich carcinoma implanted in Swiss albino mouse assessed as reduction in tumor weight at 5 mg/kg administered thrice per week for 2 weeks starting from day 7 post tumor implantation relative to DOX. The class given is functional. Set-up: scale not given: the % may be the effect or the level left.
Data set [6] concerns Ehrlich. As to the kind of experiment: Anticancer activity against mouse solid Ehrlich carcinoma cells implanted in Swiss albino mouse assessed as increase in lymphocyte count at 5 mg/kg administered thrice per week for 2 weeks starting from day 7 post tumor implantation by hematological assay (reference value: 35.57 +/- 8.34 %). Format: functional.
The subject of data set [7] is MCF7. The experiment in a line: Cytotoxicity against human MCF7 cells assessed as inhibition of cell growth incubated for 72 hrs by MTT assay. The conditions noted are these: MCF7, 72 h. The class given is functional, cell-based.
The test system of data set [8] is Ehrlich. The experiment in a line: Anticancer activity against mouse solid Ehrlich carcinoma cells implanted in Swiss albino mouse assessed as decrease in serum total protein level at 5 mg/kg administered thrice per week for 2 weeks by biochemical assay tarting from day 7 post tumor implantation by biochemical assay relative to control. Set-up: scale not given: the % may be the effect or the level left. Format: functional.

The test system of data set [9] is Ehrlich. The experiment in a line: Anticancer activity against mouse solid Ehrlich carcinoma cells implanted in Swiss albino mouse assessed as decrease in serum ALT level at 5 mg/kg administered thrice per week for 2 weeks starting from day 7 post tumor implantation by biochemical assay relative to control. Format: functional. Set-up: scale not given: the % may be the effect or the level left.

The test system of data set [10] is MCF7. The experiment in a line: Cell cycle arrest in human MCF7 cells assessed as accumulation of cells at S phase at 3.1 uM incubated for 48 hrs by PI staining based flow cytometry (reference value: 28.71 %). The class given is functional. (In flow cytometry, cells or beads pass a laser one at a time.)
Data set [11] deals with Ehrlich. As to the kind of experiment: Anticancer activity against mouse solid Ehrlich carcinoma cells implanted in Swiss albino mouse assessed as increase in RBC count measured per million cells at 5 mg/kg administered thrice per week for 2 weeks starting from day 7 post tumor implantation by hematological assay (reference value: 2.93 +/- 0.18 10^6/ml). Format: functional.

The nature of data set [12]: Toxicity in Swiss albino mouse implanted with mouse solid Ehrlich carcinoma assessed as tubular injury at 5 mg/kg administered thrice per week for 2 weeks starting from day 7 post tumor implantation by H and E staining based histopathological analysis. Format: organism-based. The conditions noted are these: in vivo, 336 h.
The nature of data set [13]: Toxicity in Swiss albino mouse implanted with mouse solid Ehrlich carcinoma assessed as mesangial expansion at 5 mg/kg administered thrice per week for 2 weeks starting from day 7 post tumor implantation by H and E staining based histopathological analysis. The class given is organism-based. To be noted: in vivo, 336 h.
For data set [14], the system named is Ehrlich. As to the kind of experiment: Anticancer activity against mouse solid Ehrlich carcinoma implanted in Swiss albino mouse assessed as increase in tumor inhibition ratio at 5 mg/kg administered thrice per week for 2 weeks starting from day 7 post tumor implantation relative to control. Set-up: scale not given: the % may be the effect or the level left. The class given is functional.

For data set [15], the system named is MCF7. As to the kind of experiment: Induction of apoptosis in human MCF7 cells assessed as total apoptotic cells incubated for 48 hrs by Annexin-V/FITC staining based flow cytometry (reference value: 1.73 %). Format: functional.
For data set [16], the system named is Ehrlich. The experiment in a line: Anticancer activity against mouse solid Ehrlich carcinoma implanted in Swiss albino mouse assessed as reduction in tumor weight at 5 mg/kg administered thrice per week for 2 weeks starting from day 7 post tumor implantation relative to control. The class given is functional. Set-up: scale not given: the % may be the effect or the level left.

A short description of data set [17]: Toxicity in Swiss albino mouse implanted with mouse solid Ehrlich carcinoma assessed as hydropic degeneration of hepatocytes at 5 mg/kg administered thrice per week for 2 weeks starting from day 7 post tumor implantation by H and E staining based histopathological analysis. The class given is organism-based. To be noted: in vivo, 336 h.
The test system of data set [18] is Ehrlich. The experiment in a line: Anticancer activity against mouse solid Ehrlich carcinoma cells implanted in Swiss albino mouse assessed as increase in monocyte count at 5 mg/kg administered thrice per week for 2 weeks starting from day 7 post tumor implantation by hematological assay (reference value: 7.42 +/- 0.52 %). The class given is functional.
The subject of data set [19] is Ehrlich. As to the kind of experiment: Anticancer activity against mouse solid Ehrlich carcinoma cells implanted in Swiss albino mouse assessed as increase in hemoglobin level at 5 mg/kg administered thrice per week for 2 weeks starting from day 7 post tumor implantation by hematological assay (reference value: 4.67 +/- 0.19 g/dl). The class given is functional.
In data set [20] the test system is Ehrlich. As to the kind of experiment: Anticancer activity against mouse solid Ehrlich carcinoma implanted in Swiss albino mouse assessed as reduction in tumor volume at 5 mg/kg administered thrice per week for 2 weeks starting from day 7 post tumor implantation relative to DOX. The class given is functional. Details: scale not given: the % may be the effect or the level left.

The nature of data set [21]: Toxicity in Swiss albino mouse implanted with mouse solid Ehrlich carcinoma assessed as portal tract inflammation in liver at 5 mg/kg administered thrice per week for 2 weeks starting from day 7 post tumor implantation by H and E staining based histopathological analysis. The class given is organism-based. The conditions noted are these: in vivo, 336 h.
For data set [22], the system named is Ehrlich. The experiment in a line: Anticancer activity against mouse solid Ehrlich carcinoma implanted in Swiss albino mouse assessed as reduction in tumor volume at 5 mg/kg administered thrice per week for 2 weeks starting from day 7 post tumor implantation relative to control. Format: functional. Set-up: scale not given: the % may be the effect or the level left.

In data set [23] the test system is Ehrlich. As to the kind of experiment: Anticancer activity against mouse solid Ehrlich carcinoma cells implanted in Swiss albino mouse assessed as decrease in serum AST level at 5 mg/kg administered thrice per week for 2 weeks starting from day 7 post tumor implantation by biochemical assay relative to control. The class given is functional. Set-up: scale not given: the % may be the effect or the level left.

The subject of data set [24] is Ehrlich. As to the kind of experiment: Anticancer activity against mouse solid Ehrlich carcinoma cells implanted in Swiss albino mouse assessed as increase in neutrophil count at 5 mg/kg administered thrice per week for 2 weeks starting from day 7 post tumor implantation by hematological assay (reference value: 55.43 +/- 8.44 %). Format: functional.

In brackets after ≈: the same amount, converted by molar mass.

`N#Cc1c(NC(=O)CSc2ccc(-c3ccc(Br)cc3)nn2)sc2c1CCCC2` had an inhibition in data set [1] of 10.8%.

In data set [1], `N#Cc1c(NC(=O)CSc2ccc(-c3ccc(F)cc3)nn2)sc2c1CCCC2` showed an inhibition of 10.8%.

Compound `N#Cc1c(NC(=O)CSc2ccc(-c3ccc(Cl)cc3)nn2)sc2c1CCCC2` displayed an inhibition in data set [1] of 10.8%.

For `Cc1ccc(-c2ccc(SCC(=O)Nc3sc4c(c3C#N)CCC4)nn2)cc1`, the Activity with Ehrlich [2] is on record as 28.31%; in the data set on Ehrlich [3], greater than 90%; in data set [4], “Non-Toxic”; in the data set with Ehrlich [5], 8.48%; in the data set with Ehrlich [6], 39.14%; in the data set on Ehrlich [8], 55.54%. The Activity with Ehrlich [9] is given as 36.12%; in the data set with MCF7 [10], 42.02%; in the data set on Ehrlich [11], 4.53 10^6/ml; in data set [12], “Toxic”; in data set [13], “Toxic”; in the data set with Ehrlich [14], 62.12%. Moreover, the Activity is 42.51% with MCF7 [15]; 74.34% in the data set with Ehrlich [16]; “Toxic” in [17]; 9.72% in the data set with Ehrlich [18]; 6.74 g/dL with Ehrlich [19]; 4.3% with Ehrlich [20]. Further, the Activity entry was “Toxic” in data set [21], 62.12% in the data set on Ehrlich [22] and 29.77% with Ehrlich [23]. The IC50 in the data set on A549 came to 17.1 µg/mL (≈ 42 µM); with MCF7 [7], 9.47 µg/mL (≈ 23.3 µM).

In turn, `COc1ccc(-c2ccc(SCC(=O)Nc3sc4c(c3C#N)CCC4)nn2)cc1` gave an inhibition in [1] of 10.8%.

Consider `Cc1ccc(-c2ccc(SCC(=O)Nc3sc4c(c3C#N)CCCC4)nn2)cc1`, for which the half-inhibitory concentration (IC50) worked out at 63.8 µg/mL (≈ 152 µM) with A549 and 34.5 µg/mL (≈ 82.1 µM) in the data set on MCF7 [7]. In addition, the inhibition in [1] came to 49.1%.

Consider `N#Cc1c(NC(=O)CSc2ccc(-c3ccc(F)cc3)nn2)sc2c1CCC2`, for which the inhibition in data set [1] is 10.8%.

On to `N#Cc1c(NC(=O)CSc2ccc(-c3ccccc3)nn2)sc2c1CCCC2`, for which the inhibition in data set [1] was determined as 10.8%.

As for `COc1cccc2c1C(=O)c1c(O)c3c(c(O)c1C2=O)C[C@@](O)(C(=O)CO)C[C@@H]3O[C@H]1C[C@H](N)[C@H](O)[C@H](C)O1` [DOXORUBICIN], the Activity in the data set on Ehrlich [2] was 35.71%; in the data set on Ehrlich [3], greater than 90%; in [4] it was “Toxic”; in the data set with Ehrlich [6] it was 36.29%; in the data set with Ehrlich [8], 48.4%; in the data set on Ehrlich [9], 39.16%. Besides, the Activity is reported as 4.94 10^6/ml with Ehrlich [11]; “Toxic” in data set [12]; “Toxic” in data set [13]; 60.4% in the data set on Ehrlich [14]; “Toxic” in data set [17]; 8.42% in the data set on Ehrlich [18]. The Activity with Ehrlich [19] was 7.34 g/dL; in the data set on Ehrlich [24] it was 54.14%; in [21], “Non-Toxic”; in the data set on Ehrlich [23] it was 23.43%.

In [1], `COc1ccc(-c2ccc(SCC(=O)Nc3sc4c(c3C#N)CCCC4)nn2)cc1` yielded an inhibition of 10.8%.

`N#Cc1c(NC(=O)CSc2ccc(-c3ccc(Br)cc3)nn2)sc2c1CCC2`: the inhibition in data set [1] is 10.8%.

Consider `N#Cc1c(NC(=O)CSc2ccc(-c3ccccc3)nn2)sc2c1CCC2`, for which, in data set [1], the inhibition came out at 10.8%.

`N#Cc1c(NC(=O)CSc2ccc(-c3ccc(Cl)cc3)nn2)sc2c1CCC2` displayed an inhibition in [1] of 10.8%.

One may read the inhibition as the relative decrease from the control value, in per cent. What is called IC50 is the concentration that gives 50% inhibition.
